Data on five compounds can be found in patent US20260125417A1, “GLUCOCORTICOID RECEPTOR AGONISTS” (ELI LILLY AND COMPANY, priority 2022, published 2026).

One may read the EC50 as the concentration that produces a half-maximal response. High values mean a less potent agent, low ones a more potent agent.

SMILES strings stand for the structures.

The target in this experiment is T1, GR-LBD (Homo sapiens, UniProt P04150).
T1 construct: purchased Life Technologies A15899
T1 sequence (P04150 524-758 limits assumed): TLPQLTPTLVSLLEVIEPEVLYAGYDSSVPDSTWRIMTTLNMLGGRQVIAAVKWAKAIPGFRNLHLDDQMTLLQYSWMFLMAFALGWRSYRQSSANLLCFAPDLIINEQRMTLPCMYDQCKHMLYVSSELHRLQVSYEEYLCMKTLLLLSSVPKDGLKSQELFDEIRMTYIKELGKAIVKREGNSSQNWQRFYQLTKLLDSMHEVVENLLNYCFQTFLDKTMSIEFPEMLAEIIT
The experiment in a line: hGR CoActivator Recruitment Assay (LanthaScreen TR-Fret GR Coactivator Assay). The format is biochemical. As to conditions: Fluorescein-SRC1-4 recruitment to GR-LBD, 10-point dilution, top concentration 200 nM, positive control 4 μM dexamethasone. The method, then:
Example 4. hGR CoActivator Recruitment Assay The activity of glucocorticoid compounds was measured using the LanthaScreen TR-Fret GR Coactivator Assay from Life Technologies (A15899). The compounds were acoustically transferred to an assay plate in a 3-fold 10-point serial dilution with atop concentration of 200 nM. Ten microliters of a 2× solution of GR-LBD was added to the compound plate and incubated for 10 min. Then ten microliters of a 2× solution of Fluoresein-SRC1-4 and Tb labelled anti-GST antibody were added to the plate. The plate was incubated in the dark for two hours and then read on an Envision plate reader, with excitation at 340 nm and emission at 520 nm (Fluorescein) and 490 nm (Terbium). The emission ratio of 520/490 was analyzed in Genedata. To obtain percent activity, the data was compared to a negative control of DMSO and positive control of 4 μM dexamethasone.
For orientation: Time-resolved FRET reads energy transfer from a long-lived donor to a nearby acceptor.
Compound `[2H]C([2H])([2H])Oc1ccc(OCc2cccc(N)c2)c(F)c1[C@H]1O[C@@H]2C[C@H]3[C@@H]4CCC5=CC(=O)C=C[C@]5(C)[C@H]4[C@@H](O)C[C@]3(C)[C@]2(C(=O)CO)O1` [Compound No. 1] returned an EC50 of 1.93 nM.

Turning to `CCc1ccc(OCc2cccc(N)c2)c(F)c1[C@H]1O[C@@H]2C[C@H]3[C@@H]4CCC5=CC(=O)C=C[C@]5(C)[C@H]4[C@@H](O)C[C@]3(C)[C@]2(C(=O)CO)O1` [compound 2, (6aR,6bS,7S,8aS,8bS,10S,11aR,12aS,12bS)-10-(3-((3-aminobenzyl)oxy)-6-ethyl-2-fluorophenyl)-7-hydroxy-8b-(2-hydroxyacetyl)-6a,8a-dimethyl-1,2,6a,6b,7,8,8a,8b,11a,12,12a,12b-dodecahydro-4H-naphtho[2′,1′:4,5]indeno[1,2-d][1,3]dioxol-4-one], the concentration for a half-maximal effect (EC50) is 1.52 nM.

`COc1ccc(CCc2ccc(N)cc2)c(F)c1[C@H]1O[C@@H]2C[C@H]3[C@@H]4CCC5=CC(=O)C=C[C@]5(C)[C@H]4[C@@H](O)C[C@]3(C)[C@]2(C(=O)CO)O1` [compound 3, (6aR,6bS,7S,8aS,8bS,10S,11aR,12aS,12bS)-10-(3-(4-aminophenethyl)-2-fluoro-6-methoxyphenyl)-7-hydroxy-8b-(2-hydroxyacetyl)-6a,8a-dimethyl-1,2,6a,6b,7,8,8a,8b,11a,12,12a,12b-dodecahydro-4H-naphtho[2′,1′:4,5]indeno[1,2-d][1,3]dioxol-4-one]: a half-maximal response (EC50) required 1.65 nM.

Consider `COc1ccc(OCCc2ccc(N)cc2)c(F)c1[C@H]1O[C@@H]2C[C@H]3[C@@H]4CCC5=CC(=O)C=C[C@]5(C)[C@H]4[C@@H](O)C[C@]3(C)[C@]2(C(=O)CO)O1` [compound 4, (6aR,6bS,7S,8aS,8bS,10S,11aR,12aS,12bS)-10-(3-(4-aminophenethoxy)-2-fluoro-6-methoxyphenyl)-7-hydroxy-8b-(2-hydroxyacetyl)-6a,8a-dimethyl-1,2,6a,6b,7,8,8a,8b,11a,12,12a,12b-dodecahydro-4H-naphtho[2′,1′:4,5]indeno[1,2-d][1,3]dioxol-4-one], for which the concentration for a half-maximal effect (EC50) was 1.48 nM.

`COc1ccc(OCCc2cccc(N)c2)c(F)c1[C@H]1O[C@@H]2C[C@H]3[C@@H]4CCC5=CC(=O)C=C[C@]5(C)[C@H]4[C@@H](O)C[C@]3(C)[C@]2(C(=O)CO)O1` [compound 5, (6aR,6bS,7S,8aS,8bS,10S,11aR,12aS,12bS)-10-(3-(3-aminophenethoxy)-2-fluoro-6-methoxyphenyl)-7-hydroxy-8b-(2-hydroxyacetyl)-6a,8a-dimethyl-1,2,6a,6b,7,8,8a,8b,11a,12,12a,12b-dodecahydro-4H-naphtho[2′,1′:4,5]indeno[1,2-d][1,3]dioxol-4-one] had a concentration for a half-maximal effect (EC50) of 2.25 nM.
